Data on two molecules can be found in paper PMC3639963, “A New Class of Small Molecule Inhibitor of BMP Signaling” (PLoS ONE, 2013).

Each structure is given as a SMILES string.

For test [1], the system named is mRFP under control of a BMP response element. Put plainly: Western blot for mRFP in Tg(BRE:mRFP) embryos. The conditions noted are these: 26 hours old embryos. In kind it is in vivo, zebrafish. As for the experimental part: (§1) Inhibitor stocks were diluted in DMSO and then further diluted in fish water to give the required inhibitor concentrations. To minimize the amount of inhibitors used, experiments were performed in 24-well plates with approximately 20 embryos per well in a volume of 1 mL. The chemical treatment was applied by immersing 8- to 16-cell stage Tg(BRE:mRFP) embryos (dorsalization experiment) or 12 hours old Tg(fli1a:eGFP) embryos (ISV experiment) in the fish water supplemented with DMSO or the chemical inhibitors. For the ISV experiment, embryos were manually dechorionated after bud stage before treatment. Embryos were scored and photographed at 26 or 48 hours.
Ten non-dechorionated 26 hours old treated Tg(BRE:mRFP) embryos were snap frozen on dry ice and stored at −80°C. Protein extracts were prepared as described previously for Xenopus embryos. Extraction buffer was freshly prepared. 10 µL per embryo of the protein extract buffer was used to lyse the embryos using a plastic pestle and a pellet pestle motor (Kontes). 40 µg (∼ 1 embryo equivalent) of protein extract was loaded per lane on a 12.5% SDS-PAGE gel. The rabbit anti-mRFP (Invitrogen, R10367) and the goat anti-MCM6 (Santa Cruz, sc-9843) antibodies were used for Western blots.
A general note: Immunoblotting shows a protein as a band on a membrane.

For test [2], the system named is Tg(BRE:mRFP) transgenic zebrafish embryos. Put plainly: Dorsalization of zebrafish embryos. In kind it is in vivo. The conditions noted are these: treated from the 8- to 16-cell stage, scored at 26 hours. The protocol: as §1, with “The zebrafish colony was maintained as described and embryos were raised at 28.5°C. The Tg(BRE:mRFP) transgenic line (also called BRE-mRFP) has been described previously and expresses mRFP in response to BMP signaling. […] Inhibitor” for “Inhibitor”, “[…])” for “Tg(fli1a:eGFP)”

The next test has as its target T1, ALK4 (Homo sapiens, UniProt P36896).
T1 construct: purchased Invitrogen
T1 sequence (P36896 24-505): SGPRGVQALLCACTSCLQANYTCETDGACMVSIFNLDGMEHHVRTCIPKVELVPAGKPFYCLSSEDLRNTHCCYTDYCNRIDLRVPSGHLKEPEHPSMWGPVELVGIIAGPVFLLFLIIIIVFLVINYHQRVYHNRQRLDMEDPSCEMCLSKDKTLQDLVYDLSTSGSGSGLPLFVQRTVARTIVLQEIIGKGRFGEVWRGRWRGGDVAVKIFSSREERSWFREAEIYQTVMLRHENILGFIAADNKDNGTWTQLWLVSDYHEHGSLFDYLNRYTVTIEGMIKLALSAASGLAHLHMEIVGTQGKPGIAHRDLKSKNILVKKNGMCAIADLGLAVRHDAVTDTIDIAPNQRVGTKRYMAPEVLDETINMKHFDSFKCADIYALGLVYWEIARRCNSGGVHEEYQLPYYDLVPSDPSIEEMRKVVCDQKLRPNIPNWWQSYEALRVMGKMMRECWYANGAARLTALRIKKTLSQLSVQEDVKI
Briefly: In vitro kinase assay ([γ-32P]ATP). In kind it is biochemical. The conditions noted are these: at the Km value of ATP; triplicate. The protocol: (§2) Inhibitors were added at concentrations between 0 and 10 µM in kinase reaction buffer and tested in triplicate.

For another test, the target named is T2, ALK6 (Homo sapiens, UniProt O00238).
T2 construct: purchased Nanosyn (enzymatic panel); SGC in-house recombinant human kinases (DSF panel); Invitrogen (ALK1-6)
T2 sequence (O00238 14-502): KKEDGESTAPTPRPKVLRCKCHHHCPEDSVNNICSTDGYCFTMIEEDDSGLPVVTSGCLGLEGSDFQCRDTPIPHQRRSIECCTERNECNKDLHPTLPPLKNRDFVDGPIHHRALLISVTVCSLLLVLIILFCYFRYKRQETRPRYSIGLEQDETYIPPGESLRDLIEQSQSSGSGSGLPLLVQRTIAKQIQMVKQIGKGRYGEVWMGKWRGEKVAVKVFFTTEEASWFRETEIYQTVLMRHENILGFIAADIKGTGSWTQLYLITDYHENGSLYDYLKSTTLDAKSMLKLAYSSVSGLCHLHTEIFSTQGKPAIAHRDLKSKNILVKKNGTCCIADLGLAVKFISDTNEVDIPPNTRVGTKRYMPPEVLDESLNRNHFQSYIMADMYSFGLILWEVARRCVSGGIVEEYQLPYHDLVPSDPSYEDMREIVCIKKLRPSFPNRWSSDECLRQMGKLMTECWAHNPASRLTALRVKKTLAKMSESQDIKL
Put plainly: In vitro kinase assay ([γ-32P]ATP). The conditions noted are these: at the Km value of ATP; triplicate. In kind it is biochemical. The protocol: as §2

The target in a further test is T3, ALK3 (Homo sapiens, UniProt P36894).
T3 construct: purchased Nanosyn (enzymatic panel); SGC in-house recombinant human kinases (DSF panel); Invitrogen (ALK1-6)
T3 sequence (P36894 24-532): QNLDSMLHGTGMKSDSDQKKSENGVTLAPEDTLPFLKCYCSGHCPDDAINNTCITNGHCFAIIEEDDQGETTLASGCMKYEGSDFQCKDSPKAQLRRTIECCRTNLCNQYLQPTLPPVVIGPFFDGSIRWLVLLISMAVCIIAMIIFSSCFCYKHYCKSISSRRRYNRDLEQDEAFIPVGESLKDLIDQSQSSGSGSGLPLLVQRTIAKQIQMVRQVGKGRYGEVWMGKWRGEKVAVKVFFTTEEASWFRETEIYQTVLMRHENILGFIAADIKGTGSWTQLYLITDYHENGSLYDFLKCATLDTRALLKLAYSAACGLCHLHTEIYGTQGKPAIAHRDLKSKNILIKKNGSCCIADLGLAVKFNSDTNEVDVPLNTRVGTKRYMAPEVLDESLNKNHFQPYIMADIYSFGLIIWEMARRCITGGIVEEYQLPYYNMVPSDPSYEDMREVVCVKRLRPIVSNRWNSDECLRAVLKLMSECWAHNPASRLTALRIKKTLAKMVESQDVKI
Put plainly: In vitro kinase assay ([γ-32P]ATP). In kind it is biochemical. The conditions noted are these: at the Km value of ATP; triplicate. As for the experimental part:
as §2

The subject of a further test is C2C12 cells. The conditions noted are these: cited from earlier work.

Turning to `COc1cc(-c2cc(-c3cccc(O)c3)cnc2N)cc(OC)c1OC` [K02288, 3-[6-amino-5-(3,4,5-trimethoxy-phenyl)-pyridin-3-yl]-phenol], the “concentration at which loss of mRFP protein was evident” value in test [1] lay within 8 to 10 µM. In test [2], the “concentration giving severely dorsalized phenotype” value is 8 to 10 µM. Moreover, the IC50 on ALK4 came out at 302 nM; at ALK6 it was 6.4 nM; against ALK3, 34.4 nM.

As for `c1cc(-c2cnn3cc(-c4ccc(OCCN5CCCCC5)cc4)cnc23)ccn1` [Dorsomorphin], the IC50 in the test with C2C12 cells is roughly 500 nM.

As a reminder, the IC50 is the concentration at which inhibition is half-maximal.
